In patent US7745547B1, “Multi-arm cyclic or cubic siloxane-based formulations for drug delivery” (Becton, Dickinson and Company, priority 2005, dated 2010):

Key:
[1] = Microscopy of dried drops: crystal formation as evidence of cisplatin encapsulation; assay type: physicochemical; details: one drop on glass slide, room temperature, open air
From the text: The cisplatin/delivery vehicle samples were also examined under a microscope to further investigate the encapsulation. Specifically, a comparison was made between encapsulated and un-encapsulated cisplatin.
The cisplatin/delivery vehicle samples were also examined under a microscope to further investigate the encapsulation. A comparison was made between encapsulated and un-encapsulated cisplatin.

[2] = Drug release time study of encapsulated cisplatin by UV-vis absorbance at 300 nm; assay type: physicochemical
Description: A drug release time study was performed on encapsulated cisplatin (i.e., cisplatin/delivery vehicle) to assess the time for complete release of the encapsulated drug from the delivery vehicle. UV-vis spectroscopy was used to monitor the change in absorbance in peaks associated with cisplatin over time.
5 mg of cisplatin was placed in a glass vial and 10 mL of water (10 mL) added. The vial was sonicated in a Bransonic Ultrasonic Cleaner (115 v, 50/60 HZ, […] transducer) for about 5 min to completely dissolve the cisplatin. 50 mg of the delivery vehicle (PEG400)4D4^M was placed in a separate vial and 10 mL of water added. Upon shaking, the polymer dissolved immediately. The cisplatin solution was added to the delivery vehicle solution drop-wise with sonication. After the mixing was complete, a UV-vis spectrum was recorded. The solution was further sonicated for 1 hr and monitored with UV-vis spectroscopy at intervals of 10 min to examine the encapsulation process. After 1 hr, sonication was stopped and incubation was allowed to continue at room temperature without shaking. UV-vis spectra were recorded at 20 min intervals for one hr, followed by 3 hours intervals for the next 24 hrs. After 24 hrs, UV-vis spectra were recorded at random intervals for several days to monitor the release time of the cisplatin. For reference, another solution of pure cisplatin was prepared at a similar concentration, and UV-vis spectra were recorded for the un-encapsulated cisplatin solution at similar intervals as with the encapsulated cisplatin solution. In about 200 hours ([…]), the absorbance of the encapsulated cisplatin solution dropped to the same level as that of the un-encapsulated cisplatin solution. This was viewed as the complete release of encapsulated cisplatin from the vehicle. All data provided in Table 4 were collected at a wavelength of 300 nm.

[3] = one drop of ethanol solution dried on glass slide
From the text: To verify the encapsulation, samples were examined under the microscope and a comparison was made between the paclitaxel solution alone and the paclitaxel/delivery vehicle solution. In particular, one drop of each solution was placed on a separate glass slide and the ethanol was allowed to evaporate at room temperature in the open-air. After complete evaporation of the ethanol, dry sample spots were covered and sealed by cover slides and both slides were examined under microscope.
For microscopic analysis, one drop of each solution (i.e., paclitaxel alone paclitaxel/delivery vehicle solutions) and was placed on a separate glass slide. The ethanol was allowed to evaporate at room temperature in the open-air. After complete evaporation of the ethanol, dry sample spots were covered and sealed by cover slides and both slides were examined under the microscope.

Structure (SMILES): N.N.[Cl][Pt][Cl] [un-encapsulated cisplatin, cisplatin]
- crystal formation as water evaporates (microscope) [1]: formed crystals
- Absorbance ([2]; time 0.00 hrs): 0.18
- Absorbance ([2]; time 0.17 hrs): 0.17
- Absorbance ([2]; time 0.33 hrs): 0.16
- Absorbance ([2]; time 0.50 hrs): 0.16
- Absorbance ([2]; time 0.67 hrs): 0.16
- Absorbance ([2]; time 0.83 hrs): 0.16
- Absorbance ([2]; time 1.00 hrs): 0.16
- Absorbance ([2]; time 1.33 hrs): 0.16
- Absorbance ([2]; time 1.67 hrs): 0.16
- Absorbance ([2]; time 2.00 hrs): 0.16
- Absorbance ([2]; time 3.00 hrs): 0.16
- Absorbance ([2]; time 21.00 hrs): 0.15
- Absorbance ([2]; time 24.00 hrs): 0.15
- Absorbance ([2]; time 42.00 hrs): 0.15
- Absorbance ([2]; time 45.00 hrs): 0.15
- Absorbance ([2]; time 72.00 hrs): 0.15
- Absorbance ([2]; time 88.00 hrs): 0.15
- Absorbance ([2]; time 120.00 hrs): 0.15
- Absorbance ([2]; time 174.00 hrs): 0.15
- Absorbance ([2]; time […]): 0.15

Structure (SMILES): CC(=O)O[C@H]1C(=O)[C@@]2(C)[C@H]([C@H](OC(=O)c3ccccc3)[C@]3(O)C[C@H](OC(=O)[C@H](O)[C@@H](NC(=O)c4ccccc4)c4ccccc4)C(C)=C1C3(C)C)[C@]1(OC(C)=O)CO[C@@H]1C[C@@H]2O [un-encapsulated paclitaxel, paclitaxel]
- fluorescence when exposed to fluorescent light (microscope) [3]: shows fluorescence activity
